Data on one molecule can be found in ChEMBL document CHEMBL5209573, “Fluo-8 based assay for SLC24A2 using HEK293 SLC24A2 JumpIn OE cells” (2022).

The test concerns the target Sodium/potassium/calcium exchanger 2 (Homo sapiens, UniProt Q9UI40). Briefly: Substrate uptake by the Sodium/Potassium/Calcium Exchanger 2 (NCKX2, SLC24A2) as assessed by Screen Questtrade mark Fluo-8 NW calcium assay kit in HEK-293 JumpIN-SLC24A2 cells (PubChem AID: 1794815). In kind it is functional, cell-based, HEK293.

Structures are written as SMILES.

Chain of Sodium/potassium/calcium exchanger 2 (Q9UI40 whole entry): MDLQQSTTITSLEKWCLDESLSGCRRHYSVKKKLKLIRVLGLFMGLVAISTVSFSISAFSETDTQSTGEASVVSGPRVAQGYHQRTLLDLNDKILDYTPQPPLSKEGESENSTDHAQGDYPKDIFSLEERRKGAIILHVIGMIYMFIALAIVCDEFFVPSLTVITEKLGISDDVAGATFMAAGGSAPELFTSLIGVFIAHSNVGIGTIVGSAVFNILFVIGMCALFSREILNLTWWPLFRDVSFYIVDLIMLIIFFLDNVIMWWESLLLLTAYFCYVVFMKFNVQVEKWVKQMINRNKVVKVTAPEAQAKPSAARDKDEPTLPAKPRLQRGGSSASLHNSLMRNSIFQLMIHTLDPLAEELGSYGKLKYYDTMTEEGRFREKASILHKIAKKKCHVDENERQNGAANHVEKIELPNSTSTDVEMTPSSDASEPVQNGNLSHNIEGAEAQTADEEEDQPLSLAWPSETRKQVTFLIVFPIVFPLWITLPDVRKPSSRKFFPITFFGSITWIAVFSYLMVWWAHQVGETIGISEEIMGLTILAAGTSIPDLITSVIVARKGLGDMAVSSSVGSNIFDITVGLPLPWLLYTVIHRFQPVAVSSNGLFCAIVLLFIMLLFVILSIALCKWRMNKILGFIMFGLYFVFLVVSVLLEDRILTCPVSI

As for `[Cl-].[K+]` [POTASSIUM CHLORIDE], the EC50 is 280 mM.

By EC50 is commonly meant the concentration that produces a half-maximal response.
